# Experiments:
# Ienssen's sarcoma = assay: Growth of graft Ienssen sarcoma in rats; type: in vivo; details: for Ch/T chemotherapeutical index (ratio of MTD to minimum effective dose): Ienssen sarcoma
# Excerpt: (§1) The antitumor activity has been studied on white rats weighing 110-130 g, as well as on white noninbred and inbred mice weighing 17-21 g with ligated tumors. The treatment is started 5-7 days transplanting of solid tumors and the following day after the transplanting of leukotic strains. Use has been made of the following transplantable strains of the tumors:
# (§2) (1) rats: Ienssen's sarcoma, sarcoma 45, sarcoma M-1, sarcoma 536;
# (§3) The compounds of the general formula (I), wherein X represents Cl^- (compound 1), Br^- (compound 2) are well-soluble in an isotonic solution of sodium chloride and they are administered intraperitoneally. The doses of the compounds have been calculated in mg per kg of the animal bodyweight.
# [1] = Growth of graft Ienssen sarcoma in rats; type: in vivo; details: rat, in vivo, ip, rats with Ienssen sarcoma, repeated intraperitoneal administration; read-out: Maximum tolerable dose (MTD)
# Excerpt: as §1, §2, §3
# [2] = Toxicity on single and repeated administration to mice; type: in vivo
# Method: (3) acute toxicity of the compounds upon a single and repeated administration to white noninbred mice places into standard cages with 8 animals in each.
# In the investigation of toxic properties of the compounds according to the present invention there has been determined the absolutely lethal dose (DL95), average lethal dose (DL50) and MTD. For compounds 1 and 2 there were determined DL95 and DL50 on healthy white mice with the body mass of 18-21 g at a single and repeated (once a day, daily for 7 days) intraperitoneal administration.
# sarcoma 37 = assay: Growth of graft sarcoma 37 in mice; type: in vivo, noninbred white mice; details: mice
# Excerpt: as §1
# (§4) (2) noninbred white mice: sarcoma 180, sarcoma AK, sarcoma 37, carcinoma HK;
# as §3
# [3] = Growth of graft sarcoma 37 in mice; type: in vivo, noninbred white mice; details: mouse, in vivo, ip; mice with sarcoma 37, repeated intraperitoneal administration; read-out: Maximum tolerable dose (MTD)
# Excerpt: as §1, §4, §3
# leukemia P-388 = assay: Life span of mice with transplantable leukemia P-388; type: in vivo, inbred mice
# Excerpt: as §1
# (§5) (3) inbred mice: leukemia La, leukemia L1210 and P-388.
# (§6) The activity of compounds relative to leukosis has been assessed by the life span (It) of treated animals as compared to the control ones. It --index of suppression of leukosis development is calculated by the formula: [formula]
# acute leucosis = assay: Clinical study on patients; type: in vivo
# Excerpt: The preparation according to the present invention has been studied in two clinics on patients with different localization of the tumoral process; the tests have justified its low toxicity.
# 54 patients were under observation including 20 patients with malignant blood diseases. In all the patients both before and after the course of treatment with the medicated compound according to the present invention the clinical state has been assessed (general state, presence of increased lymphatic nodes, liver and spleen). There were also carried out the analyses of peripheral blood, bone marrow, urine, as well as biochemical blood characteristics and electrocardiographic data (ECG).
# leukemia La = assay: Life span of mice with transplantable leukemia La; type: in vivo, inbred mice
# Excerpt: as §1, §5, §6
# carcinoma HK = assay: Growth of graft carcinoma HK in mice; type: in vivo, noninbred white mice; details: mice, 6 injections
# Excerpt: as §1, §4, §3
# [4] = Growth of graft carcinoma HK in mice; type: in vivo, noninbred white mice; details: mouse, in vivo, ip; mice with carcinoma HK, repeated intraperitoneal administration; read-out: Maximum tolerable dose (MTD)
# Excerpt: as §1, §4, §3
# sarcoma 45 = assay: Growth of graft sarcoma 45 in rats; type: in vivo; details: rats
# Excerpt: as §1, §2, §3
# [5] = Growth of graft sarcoma 45 in rats; type: in vivo; details: rat, in vivo, ip, rats with sarcoma 45, repeated intraperitoneal administration; read-out: Maximum tolerable dose (MTD)
# Excerpt: as §1, §2, §3
# sarcoma 180 = assay: Growth of graft sarcoma 180 in mice; type: in vivo, noninbred white mice; details: mice; for It, % tumor growth suppression index / Change in the animal body weight, test: 6 injections
# Excerpt: as §1, §4, §3
# [6] = Growth of graft sarcoma 180 in mice; type: in vivo, noninbred white mice; details: mouse, in vivo, ip; mice with sarcoma 180, repeated intraperitoneal administration; read-out: Maximum tolerable dose (MTD)
# Excerpt: as §1, §4, §3
# sarcoma M-1 = assay: Growth of graft sarcoma M-1 in rats; type: in vivo; details: rats, 5 injections
# Excerpt: as §1, §2, §3
# [7] = Growth of graft sarcoma M-1 in rats; type: in vivo; details: rat, in vivo, ip, rats with sarcoma M-1, repeated intraperitoneal administration; read-out: Maximum tolerable dose (MTD)
# Excerpt: as §1, §2, §3
# [8] = hypodermally, 68.6 mg/kg, 5 injections
# [9] = intramuscularly, 55.5 mg/kg, 6 injections
# [10] = rats, 1 mg/kg intraperitoneally, 7 injections
# [11] = rats, 4 mg/kg intraperitoneally, 6 injections
# [12] = rats, 6 mg/kg intraperitoneally, 6 injections
# [13] = rats, 10 mg/kg intraperitoneally, 7 injections
# [14] = rats, 20 mg/kg intraperitoneally, 7 injections
# [15] = rats, 40 mg/kg intraperitoneally, 5 injections
# [16] = rats, 90 mg/kg intraperitoneally, 7 injections
# [17] = rats, 125 mg/kg intraperitoneally, 7 injections
# [18] = rats, per os, 142 mg/kg, 7 injections
# [19] = mice, repeated intraperitoneal administration (once a day, daily for 7 days)
# [20] = mice, repeated intraperitoneal administration (once a day, daily for 7 days), listed as Preparation of the invention
# [21] = mice, single intraperitoneal administration
# [22] = 75 mg/kg intraperitoneally, 7 injections
# [23] = mice with transplantable leukemia P-388
# [24] = mice with transplantable leukemia La
# [25] = 250 mg/kg intraperitoneally (MTD)
# [26] = 50 mg/kg intraperitoneally, 7 injections
# [27] = 80 mg/kg intraperitoneally, 5 injections
smiles,measurement,setting,value
"O=C(CCBr)N1CC[N+]2(CC1)CC[N+]1(CCN(C(=O)CCBr)CC1)CC2 [Compound 1, N,N^3 -di-(β-bromopropionyl)-N^1,N^2 -dispirotripiperazinium dichloride]",Ch/T chemotherapeutical index (ratio of MTD to minimum effective dose),Ienssen's sarcoma,60
same,Ch/T chemotherapeutical index (ratio of MTD to minimum effective dose),Ienssen's sarcoma; listed as Preparation of the invention,60
same,"Change in the bodyweight of animals, test",Ienssen's sarcoma; [8],-6 g
same,"It, %",Ienssen's sarcoma; [8],+86%
same,"Change in the bodyweight of animals, test",Ienssen's sarcoma; [9],-11 g
same,"It, %",Ienssen's sarcoma; [9],+78%
same,"Change in the animal body weight, test",Ienssen's sarcoma; [10],-2 g
same,"It, % tumor growth suppression index",Ienssen's sarcoma; [10],0%
same,"Change in the animal body weight, test","Ienssen's sarcoma; rats, 2 mg/kg intraperitoneally, 6 injections",-1 g
same,"Change in the animal body weight, test",Ienssen's sarcoma; [11],0 g
same,"It, % tumor growth suppression index",Ienssen's sarcoma; [11],+81%
same,"Change in the animal body weight, test",Ienssen's sarcoma; [12],+10 g
same,"It, % tumor growth suppression index",Ienssen's sarcoma; [12],+80%
same,"Change in the animal body weight, test",Ienssen's sarcoma; [13],+4 g
same,"It, % tumor growth suppression index",Ienssen's sarcoma; [13],+93%
same,"Change in the animal body weight, test",Ienssen's sarcoma; [14],+30 g
same,"It, % tumor growth suppression index",Ienssen's sarcoma; [14],+98%
same,"Change in the animal body weight, test",Ienssen's sarcoma; [15],+20 g
same,"It, % tumor growth suppression index",Ienssen's sarcoma; [15],+85%
same,"Change in the animal body weight, test",Ienssen's sarcoma; [16],+6 g
same,"It, % tumor growth suppression index",Ienssen's sarcoma; [16],+86%
same,"Change in the animal body weight, test",Ienssen's sarcoma; [17],+4 g
same,"It, % tumor growth suppression index",Ienssen's sarcoma; [17],+89%
same,"Change in the animal body weight, test","Ienssen's sarcoma; rats, 160 mg/kg intraperitoneally (MTD), 7 injections",-12 g
same,"Change in the bodyweight of animals, test",Ienssen's sarcoma; [18],-15 g
same,"It, %",Ienssen's sarcoma; [18],+55%
same,range of therapeutical action as compared to prospidin,Ienssen's sarcoma; wider than prospidin,2.5 fold
same,MTD,[1],160 mg/kg
same,toxicity in comparison with prospidin,"[2]; less toxic than prospidin, DL50 single administration to mice",2 times
same,Ik index of toxic effect cumulation,"[2]; mice, intraperitoneal administration",82
same,DL50 (average lethal dose),[2]; [19],444 mg/kg
same,DL95 (absolutely lethal dose),[2]; [19],577 mg/kg
same,DL50 (average lethal dose),[2]; [20],444 mg/kg
same,DL95 (absolutely lethal dose),[2]; [20],577 mg/kg
same,DL50 (average lethal dose),[2]; [21],"1,924 mg/kg"
same,DL95 (absolutely lethal dose),[2]; [21],"2,272 mg/kg"
same,DL95 (absolutely lethal dose),"[2]; mice, single intraperitoneal administration, listed as Preparation of the invention",2272 mg/kg
same,DL50 (average lethal dose),"[2]; mice, single intraperitoneal administration, listed as preparation according to the present invention","1,924 mg/kg"
same,LD50,"[2]; mouse, in vivo, ip, mice, single intraperitoneal administration, read-out: DL50 (average lethal dose)",1920 mg/kg
same,MTD,"[2]; mouse, in vivo, ip, repeated intraperitoneal administration, read-out: MTD",149 mg/kg
same,"Change in the animal body weight, test",sarcoma 37; [22],-2 g
same,"It, % tumor growth suppression index",sarcoma 37; [22],+74%
same,"It, % tumor growth suppression index","sarcoma 37; 150 mg/kg intraperitoneally, 5 injections",+53%
same,"Change in the animal body weight, test","sarcoma 37; 277 mg/kg intraperitoneally (MTD), 6 injections",-4 g
same,MTD,[3],277 mg/kg
same,"extension of life span as compared to the control, factor",leukemia P-388; leukemia P-388,2
same,"It, % index of suppression of leukosis development",leukemia P-388; [23],103%
same,Life span,leukemia P-388; [23],19.7 ± 0.2 days
same,patients with positive effect,"acute leucosis; intravenously, doses of from 100 to 1,000 mg",45%
same,tolerability in patients,"acute leucosis; intravenously, single doses 500 to 600 mg daily (up to 10 g for 20 days)",well tolerated
same,patients with complete clinicohematological remission,"acute leucosis; patients with acute lympho- and mielo-regional leukemiae, intravenously 100 to 1,000 mg",20%
same,extension of life span of treated mice as compared to the control,"leukemia La; leukemia La, MTD",3 times
same,"It, % index of suppression of leukosis development",leukemia La; [24],218%
same,Life span,leukemia La; [24],21.2 ± 0.1 days
same,"Change in the animal body weight, test",carcinoma HK; 125 mg/kg intraperitoneally,-3 g
same,"It, % tumor growth suppression index",carcinoma HK; 125 mg/kg intraperitoneally,+42%
same,"Change in the animal body weight, test",carcinoma HK; [25],-4 g
same,"It, % tumor growth suppression index",carcinoma HK; [25],+86%
same,MTD,[4],250 mg/kg
same,"Change in the animal body weight, test","sarcoma 45; 20 mg/kg intraperitoneally, 7 injections",-12 g
same,"It, % tumor growth suppression index","sarcoma 45; 20 mg/kg intraperitoneally, 7 injections, 20 mg/kg",0%
same,"Change in the animal body weight, test",sarcoma 45; [26],-8 g
same,"It, % tumor growth suppression index",sarcoma 45; [26],+61%
same,"Change in the animal body weight, test",sarcoma 45; [27],-9 g
same,"It, % tumor growth suppression index",sarcoma 45; [27],+99%
same,"Change in the animal body weight, test","sarcoma 45; 125 mg/kg intraperitoneally (MTD), 5 injections",-3 g
same,MTD,[5],125 mg/kg
same,"tumor growth suppression class, Sarcoma 180",sarcoma 180,++ (tumor growth suppression by 80-95%)
same,"It, % tumor growth suppression index",sarcoma 180; 25 mg/kg intraperitoneally,+42%
same,"Change in the animal body weight, test",sarcoma 180; 75 mg/kg intraperitoneally,-4 g
same,"It, % tumor growth suppression index","sarcoma 180; 75 mg/kg intraperitoneally, 75 mg/kg",+74%
same,"It, % tumor growth suppression index","sarcoma 180; 75 mg/kg intraperitoneally, listed as preparation of the invention, 75 mg/kg",74%
same,"Change in the animal body weight, test",sarcoma 180; 262 mg/kg intraperitoneally (MTD),-6 g
same,MTD,[6],262 mg/kg
same,"Change in the animal body weight, test",sarcoma M-1; 90 mg/kg intraperitoneally,+7 g
same,"It, % tumor growth suppression index",sarcoma M-1; 90 mg/kg intraperitoneally,+96%
same,"Change in the animal body weight, test",sarcoma M-1; 111 mg/kg intraperitoneally (MTD),+4 g
same,MTD,[7],111 mg/kg

# — patent US4481201A, “Pharmaceutical composition containing N,N^3 -di-(β-bromopropionyl)-N^1,N^2 -dispirotripiperazinium dichloride” (Vsesojuzny Nauchno-Issledovatelsky Khimoko-Farmasevtichesky …, priority 1981, dated 1984)
